The values that follow come from patent publication US20100234377A1 (priority 2007, published 2010).

Read-outs that look alike come from different tables or passages of the source.

Data set [1] deals with T1, human Prostaglandin D Synthase (GST2) (Homo sapiens, UniProt O60760).
T1 construct: the open reading frame of human Prostaglandin D Synthase was amplified from cDNA; made in house; host or cells: E. coli TOP10F'
The data set can be described thus: Homogeneous biochemical assay of human Prostaglandin D Synthase (GST2) based on its glutathion-S-transferase activity (GSH conjugation to monochlorobimane, fluorescence). The procedure, abridged:
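N-His-tagged human PGD synthase from E. coli, assayed via its GST activity: GSH conjugation to monochlorobimane in 50 mM MES/KOH pH 6.1, 0.7 mM GSH, 2 mM MgCl2. Compounds at final picomolar to triple-digit micromolar concentrations.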

Data set [2] is described as follows: Mouse microsomal metabolism assay. It is filed as in vitro ADME. Conditions: mouse hepatic microsomes, 37° C., phosphate buffer pH 7.4, NADPH regenerating system; for half-life: liver microsomes, read-out: Mouse t½. Here is the method:
Selected GST2 Inhibitors from Formula I Assessed in Mouse Microsomal Metabolism Assay
Selected GST2 inhibitors of General Formula (I) were screened in a mouse hepatic microsome assay to determine microsomal metabolism.
Test Articles were prepared in 50% acetonitrile.
Mouse hepatic microsomes supplied by BD GenTest Inc or an equivalent reputable supplier.
Test Articles are added to incubation plates containing phosphate buffer pH 7.4 and microsomes at a suitable protein concentration. Incubation plates are placed on a shaking water bath at 37° C. for 5 minutes pre-incubation. An aliquot of the reaction mixture is taken and added to acetonitrile (3:1). This is designated time […]. NADPH regenerating system in phosphate buffer pH 7.4 is added to initiate reactions. Aliquots from the incubation wells are taken at a number of time points and added to acetonitrile. Control incubations contained no microsomes or compounds with known microsomal stabilities. Samples were subject to centrifugation to remove denatured protein and the supernatants were analysed by LCMS.
Half lives were calculated from the log vs time transformed data according to the following equation: […]
Where λ is the slope of the linear regression line under first order (Test Article concentration <Km) conditions.

The next data set addresses K+ATP channel (Rattus norvegicus, UniProt Q09429). Briefly: KATP channel receptor binding assay ([3H]glibenclamide). Conditions: Table 1; 10 μM compound concentration; [3H]glibenclamide 0.1 nM, rat cerebral cortex; read-out: K^+ATP Channel (% Inhibition of Control Specific Binding). As for the experimental part: KATP Channel Mediated Binding Assay
The compounds of Comparative Examples I to XII and Compounds 59, 30, 22, 76 and 69 were tested for their effects in an in vitro receptor binding KATP channel assay.
The specific ligand binding to the receptor is defined as the difference between the total binding and the non-specific binding determined in the presence of an excess of unlabelled ligand. The results are expressed as a percent inhibition of control specific binding obtained in the presence of the test compounds.
In each experiment, the respective reference compound was tested concurrently with the test compounds in order to assess the assay suitability. It was tested at several concentrations (for IC50 value determination), and the data were compared with historical values.

The mark [3] stands for this setting: given beside the compound name in Examples 1 to 167, read-out: Potency Range (GST2 IC50).
The mark [4] stands for this setting: Table 1, read-out: GST2 IC50 Range.
The mark [5] stands for this setting: Table 2, comparative examples, read-out: GST2 inhibition IC50.

T1 sequence (O60760 whole entry): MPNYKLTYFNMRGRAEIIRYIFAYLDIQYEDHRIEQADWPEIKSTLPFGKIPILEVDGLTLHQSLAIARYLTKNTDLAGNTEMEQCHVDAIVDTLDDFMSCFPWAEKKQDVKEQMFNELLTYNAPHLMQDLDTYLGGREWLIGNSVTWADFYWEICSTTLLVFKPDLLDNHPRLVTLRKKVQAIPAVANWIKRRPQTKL
K+ATP channel, sequence (Q09429 whole entry): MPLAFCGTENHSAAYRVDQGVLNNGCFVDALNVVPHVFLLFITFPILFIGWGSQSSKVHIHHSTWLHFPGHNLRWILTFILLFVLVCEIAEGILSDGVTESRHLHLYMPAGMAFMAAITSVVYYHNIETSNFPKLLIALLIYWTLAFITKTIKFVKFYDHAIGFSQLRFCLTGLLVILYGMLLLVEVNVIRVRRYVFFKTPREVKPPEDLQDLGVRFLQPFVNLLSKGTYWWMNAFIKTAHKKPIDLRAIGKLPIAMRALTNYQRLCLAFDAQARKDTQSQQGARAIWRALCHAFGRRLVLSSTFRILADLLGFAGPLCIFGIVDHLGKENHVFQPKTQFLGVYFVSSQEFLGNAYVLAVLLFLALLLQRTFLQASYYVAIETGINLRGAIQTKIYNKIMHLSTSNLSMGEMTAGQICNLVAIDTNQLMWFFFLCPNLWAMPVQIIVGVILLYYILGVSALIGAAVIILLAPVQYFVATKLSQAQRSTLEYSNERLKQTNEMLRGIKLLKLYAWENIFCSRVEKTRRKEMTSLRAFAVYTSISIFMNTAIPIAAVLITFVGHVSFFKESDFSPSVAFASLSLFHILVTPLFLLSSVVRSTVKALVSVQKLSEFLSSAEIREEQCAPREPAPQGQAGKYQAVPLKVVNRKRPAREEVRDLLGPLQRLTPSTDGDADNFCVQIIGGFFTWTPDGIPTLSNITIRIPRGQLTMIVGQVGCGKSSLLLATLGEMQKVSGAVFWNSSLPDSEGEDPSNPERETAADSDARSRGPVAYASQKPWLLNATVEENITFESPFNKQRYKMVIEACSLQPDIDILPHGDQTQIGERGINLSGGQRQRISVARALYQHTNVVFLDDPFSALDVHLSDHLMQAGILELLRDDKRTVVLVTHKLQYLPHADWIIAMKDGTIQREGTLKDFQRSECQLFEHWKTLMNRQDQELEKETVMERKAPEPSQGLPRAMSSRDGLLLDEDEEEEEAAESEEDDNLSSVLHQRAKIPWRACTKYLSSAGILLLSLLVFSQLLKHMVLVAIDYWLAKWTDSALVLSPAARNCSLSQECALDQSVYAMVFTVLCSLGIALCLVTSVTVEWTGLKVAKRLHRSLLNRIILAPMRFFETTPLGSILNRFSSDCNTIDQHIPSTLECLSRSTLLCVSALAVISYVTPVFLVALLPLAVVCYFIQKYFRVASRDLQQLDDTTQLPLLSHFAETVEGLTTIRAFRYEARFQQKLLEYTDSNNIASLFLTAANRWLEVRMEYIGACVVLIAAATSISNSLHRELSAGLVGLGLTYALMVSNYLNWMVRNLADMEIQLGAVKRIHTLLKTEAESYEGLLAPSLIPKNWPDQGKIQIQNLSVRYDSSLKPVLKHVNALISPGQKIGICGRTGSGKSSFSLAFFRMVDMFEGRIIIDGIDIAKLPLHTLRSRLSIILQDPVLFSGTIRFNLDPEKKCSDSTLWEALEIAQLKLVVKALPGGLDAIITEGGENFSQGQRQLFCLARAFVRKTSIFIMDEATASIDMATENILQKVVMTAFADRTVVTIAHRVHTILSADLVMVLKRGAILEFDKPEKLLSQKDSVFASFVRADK
K+ATP channel, sequence (P70673 whole entry partner): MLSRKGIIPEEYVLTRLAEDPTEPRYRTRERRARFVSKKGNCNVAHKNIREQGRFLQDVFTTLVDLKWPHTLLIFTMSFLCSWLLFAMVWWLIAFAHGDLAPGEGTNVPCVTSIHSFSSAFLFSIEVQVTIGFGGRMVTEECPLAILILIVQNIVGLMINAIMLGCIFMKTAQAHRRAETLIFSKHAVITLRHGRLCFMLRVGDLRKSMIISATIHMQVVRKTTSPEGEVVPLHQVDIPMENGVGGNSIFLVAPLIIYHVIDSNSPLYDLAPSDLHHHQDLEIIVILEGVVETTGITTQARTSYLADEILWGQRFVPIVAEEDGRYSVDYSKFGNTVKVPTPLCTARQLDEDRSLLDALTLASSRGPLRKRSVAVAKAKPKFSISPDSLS

What is called IC50 is the concentration at which inhibition is half-maximal. Consider “4-(2-Fluoro-4-{[4-(3-fluoro-benzoyl)-piperazine-1-carbonyl]-amino}-phenyl)-piperazine-1-carboxylic acid isopropyl ester [Compound 50]”, for which, in data set [1] (setting [3]), the 50% inhibitory concentration (IC50) lay within 11 to 100 nM. The “Mouse t½” value in data set [2] is more than 60 min.

On to `O=C(Nc1ccc(OC(F)(F)F)cc1)N1CCN(C(=O)c2cccc(F)n2)CC1` [Compound 21, 4-(6-Fluoro-pyridine-2-carbonyl)-piperazine-1-carboxylic acid (4-trifluoromethoxy-phenyl)-amide], for which the IC50 in data set [1] (setting [3]) is 101 to 1000 nM. Further, the half-life in data set [2] was more than 60 min.

With `O=C(Nc1nc2cc(Cl)ccc2o1)N1CCN(C(=O)c2cccc(F)c2)CC1` [Compound 39, 4-(3-Fluoro-benzoyl)-piperazine-1-carboxylic acid (5-chloro-benzooxazol-2-yl)-amide], in data set [1] (setting [3]), the 50% inhibitory concentration (IC50) fell in the range of 101 to 1000 nM. Besides, in data set [2], the half-life was more than 60 min. For `CC(C)NC(=O)N1CCN(c2ccc(NC(=O)N3CCN(C(=O)c4cccc(F)c4)CC3)cc2F)CC1` [Compound 52, 4-(3-fluorobenzoyl)-N-{3-fluoro-4-[4-(isopropylcarbamoyl)piperazin-1-yl]phenyl}piperazine-1-carboxamide], in that order: 11 to 100 nM and more than 60 min.

For the compound `CN1CCN(c2ccc(NC(=O)N3CCN(C(=O)c4cccc(F)c4)CC3)cc2F)CC1` [Compound 60, 4-(3-Fluoro-benzoyl)-piperazine-1-carboxylic acid [3-fluoro-4-(4-methyl-piperazin-1-yl)-phenyl]-amide], the IC50 in data set [1] (setting [3]) is 101 to 1000 nM. Further, in data set [2], the half-life was 58.7 min.

`O=C(Nc1ccc(Cl)nc1)N1CCN(C(=O)c2cccc(F)c2)CC1` [Compound 63, 4-(3-Fluoro-benzoyl)-piperazine-1-carboxylic acid (6-chloro-pyridin-3-yl)-amide]: in data set [1] (setting [3]), the 50% inhibitory concentration (IC50) lay within 101 to 1000 nM. In addition, the half-life in data set [2] is more than 60 min.

As for `O=C(Nc1ccc(C(=O)N2CCOCC2)cc1)N1CCN(C(=O)c2cccc(F)c2)CC1` [Compound 101, 4-(3-Fluoro-benzoyl)-piperazine-1-carboxylic acid [4-(morpholine-4-carbonyl)-phenyl]-amide], the IC50 in data set [1] (setting [3]) lay within 101 to 1000 nM. Moreover, in data set [2], the half-life was more than 60 min.

On to `NC(=O)c1ccc(NC(=O)N2CCN(C(=O)c3cccc(F)c3)CC2)cc1` [Compound 105, 4-(3-Fluoro-benzoyl)-piperazine-1-carboxylic acid (4-carbamoyl-phenyl)-amide], for which, in data set [1] (setting [3]), the IC50 is 101 to 1000 nM. For the same compound, the half-life in data set [2] is more than 60 min. In the case of `O=C(Nc1cccc(NC(=O)N2CCN(C(=O)c3cccc(F)c3)CC2)c1)c1ccc[n+]([O-])c1` [Compound 109, 4-(3-Fluoro-benzoyl)-piperazine-1-carboxylic acid {3-[(1-oxy-pyridine-3-carbonyl)-amino]-phenyl}-amide], the IC50 in data set [1] (setting [3]) was in the range of 101 to 1000 nM. The half-life in data set [2] was more than 60 min. For `O=C(Nc1ccc(NC(=O)N2CCN(C(=O)c3cccc(F)c3)CC2)cc1)c1ccncc1` [Compound 123, 4-(3-Fluoro-benzoyl)-piperazine-1-carboxylic acid {4-[(pyridine-4-carbonyl)-amino]-phenyl}-amide], in that order: 101 to 1000 nM and more than 60 min. For `CS(=O)(=O)Nc1ccc(NC(=O)N2CCN(C(=O)c3cccc(F)c3)CC2)cc1` [Compound 126, 4-(3-Fluoro-benzoyl)-piperazine-1-carboxylic acid (4-methanesulfonylamino-phenyl)-amide], in that order: 101 to 1000 nM and more than 60 min. With `O=C(Nc1ccc(N2CCOCC2)nc1)N1CCN(C(=O)c2cccc(F)c2)CC1` [Compound 154, 4-(3-Fluoro-benzoyl)-piperazine-1-carboxylic acid (6-morpholin-4-yl-pyridin-3-yl)-amide], the IC50 in data set [1] (setting [3]) is 11 to 100 nM. Besides, the half-life in data set [2] is more than 60 min. Turning to `O=C(Nc1ccc(F)cc1)N1CCN(C(=O)c2cccc(F)c2)CC1` [Compound 155, 4-(3-Fluoro-benzoyl)-piperazine-1-carboxylic acid (4-fluoro-phenyl)-amide], the half-inhibitory concentration (IC50) in data set [1] (setting [3]) lay within 101 to 1000 nM. The half-life in data set [2] was 59.4 min. For `Cc1ccccc1C(=O)N1CCN(C(=O)Nc2ccc(F)cc2)CC1` [Compound 156, 4-(2-Methyl-benzoyl)-piperazine-1-carboxylic acid (4-fluoro-phenyl)-amide], in that order: 101 to 1000 nM and 31.4 min. The term inhibition denotes the relative decrease from the control value, in per cent. As to `O=C(Nc1cc(C(F)(F)F)cc(C(F)(F)F)c1)N1CCN(C(=O)c2ccco2)CC1` [Compound I, 4-(Furan-2-carbonyl)-piperazine-1-carboxylic acid (3,5-bis-trifluoromethyl-phenyl)-amide, reference compound], the IC50 in data set [1] (setting [4]) was in the range of 101 to 1000 nM. In addition, the inhibition at 10 µM on K+ATP channel was -1%. Consider `O=C(Nc1cc(Cl)cc(Cl)c1)N1CCN(C(=O)c2ccco2)CC1` [Compound II, 4-(Furan-2-carbonyl)-piperazine-1-carboxylic acid (3,5-dichloro-phenyl)-amide, reference compound], for which the concentration for half-maximal inhibition (IC50) in data set [1] (setting [4]) was 101 to 1000 nM. On K+ATP channel, the inhibition at 10 µM is -17%.

`O=C(c1ccco1)N1CCN(C(=S)Nc2cc(C(F)(F)F)cc(C(F)(F)F)c2)CC1` [Compound VI, 4-(Furan-2-carbonyl)-piperazine-1-carbothioic acid (3,5-bis-trifluoromethyl-phenyl)-amide]: the inhibition at 10 µM at K+ATP channel stood at 4%.

With `COC(=O)c1ccccc1C(=O)N1CCN(C(=O)Nc2ccc(F)cc2)CC1` [XIII, 2-[4-(4-Fluoro-phenylcarbamoyl)-piperazine-1-carbonyl]-benzoic acid methyl ester, reference compound], the IC50 in data set [1] (setting [5]) is 28200 nM. The same measure, in the same setting: for `O=C(Nc1ccc(F)cc1)N1CCN(C(=O)c2ccccc2Oc2ccccc2)CC1` [XIV, 4-(2-Phenoxy-benzoyl)-piperazine-1-carboxylic acid (4-fluoro-phenyl)-amide, reference compound] the value was 180000 nM. With `O=C(Nc1ccc(F)cc1)N1CCN(C(=O)c2cccc(F)n2)CC1` [XXIII, 4-(6-Fluoro-pyridine-2-carbonyl)-piperazine-1-carboxylic acid (4-fluoro-phenyl)-amide], in data set [2], the half-life was more than 60 min.

Consider `O=C(Nc1ccc(N2CCOCC2)nc1)N1CCN(Cc2cccc(F)c2)CC1` [XXIV, 4-(3-Fluoro-benzyl)-piperazine-1-carboxylic acid (6-morpholin-4-yl-pyridin-3-yl)-amide], for which the half-life in data set [2] is 31.4 min. On the same count and under the same terms, for `O=C(Nc1ccc(F)cc1)N1CCN(Cc2cccc3c2OC(F)(F)O3)CC1` [XXIX, 4-(2,2-Difluoro-benzo[1,3]dioxol-4-ylmethyl)-piperazine-1-carboxylic acid (4-fluoro-phenyl)-amide] the value was 12.1 min.

On to `O=C(Nc1ccc(N2CCOCC2)nc1)N1CCN(Cc2ccccc2)CC1` [XXV, 4-Benzyl-piperazine-1-carboxylic acid (6-morpholin-4-yl-pyridin-3-yl)-amide], for which, in data set [2], the half-life is 27.6 min. As for `O=C(Nc1ccc(F)cc1)N1CCN(Cc2ccccc2O)CC1` [XXVI, 4-(2-Hydroxy-benzyl)-piperazine-1-carboxylic acid (4-fluoro-phenyl)-amide], the half-life in data set [2] stood at 21.9 min. Take `O=C(Nc1ccc(N2CCNCC2)c(F)c1)N1CCN(Cc2cccc(F)n2)CC1` [XXVII, 4-(6-Fluoro-pyridin-2-ylmethyl)-piperazine-1-carboxylic acid (3-fluoro-4-piperazin-1-yl-phenyl)-amide]: in data set [2], the half-life stood at 20.9 min. Consider `O=C(Nc1ccc(N2CCOCC2)nc1)N1CCN(Cc2cc(F)cc(F)c2)CC1` [XXVIII, 4-(3,5-Difluoro-benzyl)-piperazine-1-carboxylic acid (6-morpholin-4-yl-pyridin-3-yl)-amide], for which, in data set [2], the half-life worked out at 15.5 min. Same read-out and setting: for `O=C(Nc1ccc(F)cc1)N1CCN(Cc2cccc(F)c2)CC1` [XXX, 4-(3-Fluoro-benzyl)-piperazine-1-carboxylic acid (4-fluoro-phenyl)-amide] the value was 10.6 min; for `Cc1ccccc1CN1CCN(C(=O)Nc2ccc(F)cc2)CC1` [XXXI, 4-(2-Methyl-benzyl)-piperazine-1-carboxylic acid (4-fluoro-phenyl)-amide], 4.4 min.
